Primed or numbered codes have the meaning given here. Where no end group is shown, it is not given here. [ ]: non-standard residue; d: D form. Pen′ = Penicillamine
Assays:
[1] = tested on: attachment of normal rat kidney cells to vitronectin; experiment: Cell adhesion assay: inhibition of attachment of normal rat kidney cells to vitronectin; assay type: cell-based; conditions: normal rat kidney cells on vitronectin-coated wells, peptide 0 to 10.0 mM, 1 hour at 37° C., FIG. 2
Protocol: (§1) Fibronectin and vitronectin were purified from human plasma according to the methods of Ruoslahti et al., (1982) Meth. Enz. 82:803; and Hayman et al., (1983) PNAS 80:4003, respectively, both of which are incorporated herein by reference. The adhesion of normal rat kidney cells to fibronectin and vitronectin was assayed as described, in Ruoslahti et al., Meth. Enz. supra. Briefly, 0.1 ml solution of fibronectin or vitronectin at a concentration of 12 μg/ml in 0.1M PBS was placed in each well of 96-well plastic microtiter plates and left for 2 hours at room temperature. The unattached protein was removed by washing three times with PBS.
(§2) One day before the assay, a confluent culture of normal rat kidney cells was split 1:2 using standard tissue culture trypsin. The cells were washed three times with PBS, pH 7.2. […] Before the last centrifugation, a sample was taken and cell numbers and viability by trypan blue exclusion are determined. […]
(§3) The unattached cells were removed simply by removing the medium and washing the wells. […] The cells were then fixed with 3% paraformaldehyde in PBS and stained with 1% toluidine blue, paraformaldehyde in PBS, and attached cells counted. Their number was determined using a cell counter that is capable of counting cells attached to a surface (Dynatech Laboratories, Alexandria, Va.). […]

[2] = tested on: attachment of normal rat kidney cells to fibronectin; experiment: Cell adhesion assay: inhibition of attachment of normal rat kidney cells to fibronectin; assay type: cell-based; conditions: normal rat kidney cells on fibronectin-coated wells; peptide 0 to 10.0 mM; 1 hour at 37° C.; FIG. 2
Protocol: as §1, §2, §3

Substance	inhibition of attachment to vitronectin [1]	inhibition of attachment to fibronectin [2]	molar concentration inhibiting attachment to vitronectin, lower than the linear peptide ([1]; relative to linear peptide)
Gly-Pen-Gly-Arg-Gly-Asp-Ser-Pro-Cys (G[Pen′]GRGDSPC; cysteine pairing not given here) [linear peptide, non-cyclized, or linear, peptide used as comparator]	inhibited attachment of cells to both substrates at relatively similar concentrations	inhibited attachment of cells to both substrates at relatively similar concentrations	–
Gly-Pen-Gly-Arg-Gly-Asp-Ser-Pro-Cys-Ala [cyclic peptide]	–	ineffective	10 fold
